# Legend:
# Assay type in all cases: cell-based
# NCI-H28 cells = assay: Cell growth inhibition test (CellTiter-Glo), NCI-H28; details: Homo sapiens, NCI-H28 cell line
# Method: (§1) The cell growth for the compounds prepared in Examples was measured by CellTiter-Glo® Luminescednt Cell Viability (Promega, Catalog #G7571) method using NCI-H226 (addexbio), NCI-H28 (Korea Cell Line Bank) cell lines. This evaluation method is a method in which when luciferase enzyme is activated by ATP flowing out from living cells, it reacts with a luciferin substrate, and the enzyme activity at this time is measured to confirm cell viability.
# (§2) Specifically, NCI-H226, and NCI-H28 cells were prepared in 100 μL of cell culture medium (RPMI medium, 10% FBS, 1% P/S, 4.5 g/L D-Glucose, 2.383 g/L HEPES Buffer, L-Glutamine, 1.5 g/L Sodium Bicarbonate, 110 mg/L Sodium pyruvate) in a white clear bottom 96-well microplate. The prepared plate was incubated in a 5% CO2 incubator at 37° C. for 24 hours, and then the previously prepared compounds of Examples were finally treated at concentrations of 0.0005, 0.005, 0.05, 0.5 and 5 μM, which was repeated three times for all treatment solutions.
# (§3) The plates treated with the compounds of Examples were incubated in a 5% CO2 incubator at 37° C. 100 μL/well of the substrate aqueous solution containing luciferin was added to a white clear-bottom 96 well microplate, thereby initiating an enzyme reaction. The reaction was performed at room temperature in the dark for 10 minutes, and the luminescence was measured using a Flexstation3 multi-mode microplate reader. In accordance with the instructions for the CellTiter-Glo™ Luminescednt Cell Viability, the luciferase enzyme activity, which represents the amount of ATP, was measured by a chemiluminescence method, and the inhibitory activity of the compounds according to the present disclosure was calculated. The results of each compound were analyzed using Microsoft Excel, and the IC50 values were calculated using GraphPad Prism software.
# NCI-H226 cells = assay: Cell growth inhibition test (CellTiter-Glo), NCI-H226; details: Homo sapiens, NCI-H226 cell line
# Method: as §1, §2, §3
# [1] = system: transcription factor TEAD; assay: Activity inhibition test of transcription factor TEAD (ONE-Glo luciferase assay, Hippo Pathway TEAD reporter-MCF7 cell line); details: Homo sapiens; TEAD Reporter-MCF7 cells, 24 hours treatment, luciferase luminescence
# Method: The transcription factor TEAD activity of the compounds prepared in Examples was measured by the ONE-Glo™ Luciferase assay (Promega, Catalog #E6110) method using the Hippo Pathway TEAD reporter-MCF7 recombinant cell line (BPS Bioscience, Catalog #60618).
# Specifically, the TEAD Reporter-MCF7 cell line contains the firefly luciferase gene whose expression is regulated under the control of TEAD response elements in the MCF7, which is a human breast cancer cell line. In the cell line, a non-phosphorylated YAP/TAZ exists in the nucleus in a non-stressed condition, which continuously induces expression of the luciferase reporter.
# TEAD Reporter-MCF7 cells were prepared in 100 μL of cell culture medium (MEM medium, 10% FBS, 1% P/S, 400 μg/mL Geneticin, 1% […], 1 mM NA pyruvate, 10 μg/mL Insulin) in a white clear bottom 96-well microplate. The prepared plate was incubated in a 5% CO2 incubator at 37° C. for 24 hours, and then the previously prepared compounds of Examples were finally treated at concentrations of 0.0005, 0.005, 0.05, 0.5 and 5 μM, which were repeated three times for all treatment solutions. The plates treated with the compounds of Examples were incubated in a 5% CO2 incubator at 37° C. for 24 hours. 100 μL/well of the substrate aqueous solution containing luciferin was added to a white clear-bottom 96 well microplate, thereby initiating an enzyme reaction. The reaction was performed at room temperature for 5 minutes, and the luminescence (integration time 1000 ms) was measured using a Flexstation3 multi-mode microplate reader. In accordance with the instructions for the ONE-Glo™ Luciferase Assay, the luciferase enzyme activity, which represents the activity of the transcription factor TEAD, was measured by a chemiluminescence method, and the inhibitory activity of the compound according to the present disclosure was calculated. The results of each compound were analyzed using Microsoft Excel, and the IC50 values were calculated by GraphPad Prism software.
compound,measurement,setting,value
"C=CC(=O)Nc1cc(-c2cn(C)cn2)c2[nH]c(-c3ccc(Cl)c(Cl)c3)cc2c1 [Example 8, N-(2-(3,4-dichlorophenyl)-7-(1-methyl-1H-imidazol-4-yl)-1H-indol-5-yl)acrylamide]",IC50,NCI-H28 cells,950 nM
same,IC50,NCI-H226 cells,57 nM
same,IC50,[1],110 nM
"C=CC(=O)Nc1cc(-c2cn(C)cn2)c2[nH]c(-c3ccc(Br)cc3)cc2c1 [Example 52, N-(2-(4-bromophenyl)-7-(1-methyl-1H-imidazol-4-yl)-1H-indole-5-yl)acrylamide]",IC50,NCI-H28 cells,868 nM
same,IC50,NCI-H226 cells,58 nM
same,IC50,[1],346 nM
"C=CC(=O)Nc1cc(-c2cn(C)cn2)c2[nH]c(-c3cccc(F)c3)cc2c1 [Example 42, N-(2-(3-fluorophenyl)-7-(1-methyl-1H-imidazol-4-yl)-1H-indol-5-yl)acrylamide]",IC50,NCI-H28 cells,2080 nM
same,IC50,NCI-H226 cells,4.5 nM
same,IC50,[1],97 nM
"C=CC(=O)Nc1cc(-c2cn(C)cn2)c2[nH]c(-c3ccc(F)c(Cl)c3)cc2c1 [Example 44, N-(2-(3-chloro-4-fluorophenyl)-7-(1-methyl-1H-imidazol-4-yl)-1H-indol-5-yl)acrylamide]",IC50,NCI-H28 cells,1900 nM
same,IC50,NCI-H226 cells,21.7 nM
same,IC50,[1],37 nM
